Earlier results as cited in US20230139888A1, “MOISTURIZING PEEL CREAM FOR ENHANCING SKIN” (L'OREAL, priority 2021, published 2023).

Settings: acute oral toxicity, mutagenicity, skin irritation, skin sensitization, phototoxicity

CC(c1ccccc1)c1ccc(O)cc1O (stereo not shown) [Phenylethyl resorcinol]
adverse effects in basic toxicological tests: has not shown adverse effects
